Results from patent US10316035B2, “Triazolopyridine inhibitors of myeloperoxidase” (BRISTOL-MYERS SQUIBB COMPANY, priority 2015, dated 2019).

molecular target: T1, myeloperoxidase (MPO) (Homo sapiens, UniProt P05164); assay: MPO peroxidation assay (Amplex Red assay); format: biochemical; conditions: not given
T1 sequence (P05164 49-745): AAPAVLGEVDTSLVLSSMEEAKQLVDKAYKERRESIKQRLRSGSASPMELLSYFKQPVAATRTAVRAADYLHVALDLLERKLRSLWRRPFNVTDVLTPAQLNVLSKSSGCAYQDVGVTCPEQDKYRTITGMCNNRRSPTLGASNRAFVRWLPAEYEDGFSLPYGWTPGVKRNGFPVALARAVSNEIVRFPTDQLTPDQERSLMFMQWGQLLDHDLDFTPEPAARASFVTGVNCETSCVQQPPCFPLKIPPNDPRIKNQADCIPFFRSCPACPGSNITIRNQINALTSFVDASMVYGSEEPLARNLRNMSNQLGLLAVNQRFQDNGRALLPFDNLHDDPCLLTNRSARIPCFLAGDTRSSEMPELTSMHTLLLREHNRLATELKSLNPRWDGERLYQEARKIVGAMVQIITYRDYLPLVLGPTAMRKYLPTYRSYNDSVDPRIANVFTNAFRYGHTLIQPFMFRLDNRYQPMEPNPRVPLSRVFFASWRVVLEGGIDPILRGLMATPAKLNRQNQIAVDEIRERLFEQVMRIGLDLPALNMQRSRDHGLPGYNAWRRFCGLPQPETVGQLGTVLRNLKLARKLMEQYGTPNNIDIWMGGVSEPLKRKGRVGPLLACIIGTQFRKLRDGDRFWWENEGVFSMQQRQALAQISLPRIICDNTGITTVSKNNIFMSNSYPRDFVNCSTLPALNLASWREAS
Method in brief: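 Peroxidase turnover of Amplex Red to fluorescent resorufin (Ex 535/Em 590 nm) was followed for 15 min in 100 mM KPi, pH 7.4, after 10 min room-temperature preincubation of compound with 200 pM enzyme plus 40 nM H2O2. The substrate mix contained 200 μM Amplex Red and 10 mM H2O2. IC50s came from linear-phase rates (180–540 s) fitted with a Hill equation.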

Row | IC50 [nM] | Structure (SMILES)
1 | 1 to 100 | Nc1cc(OCc2cccc(-c3ccccc3F)c2)c2nn[nH]c2n1 [Example 96, 7-((2′-Fluorobiphenyl-3-yl)methoxy)-3H-[1,2,3]triazolo[4,5-b]pyridin-5-amine]

same assay, conditions: MPO peroxidation, potency range class; read-out: Amplex Red IC50

Row | Structure (SMILES) | IC50 [nM]
2 | COc1ccccc1-c1ccc(F)c(COc2cc(N)nc3[nH]nnc23)c1F [Example 73, 7-((2,4-Difluoro-2′-methoxybiphenyl-3-yl)methoxy)-3H-[1,2,3]triazolo[4,5-b]pyridin-5-amine] | 1 to 100
3 | COc1ccccc1CNC(=O)c1ccc(COc2cc(N)nc3[nH]nnc23)c(Cl)c1 [Example 215, 4-((5-amino-3H-[1,2,3]triazolo[4,5-b]pyridin-7-yloxy)methyl)-3-chloro-N-(2-methoxybenzyl)benzamide] | 1 to 100
4 | COc1cc(Cl)c(Cl)cc1COc1cc(N)nc2[nH]nnc12 [Example 252, 7-((4,5-Dichloro-2-methoxybenzyl)oxy)-3H-[1,2,3]triazolo[4,5-b]pyridin-5-amine] | 1 to 100
5 | Nc1cc(OCc2ccc(Br)cc2)c2nn[nH]c2n1 [Example 106, 7-(4-Bromobenzyloxy)-3H-[1,2,3]triazolo[4,5-b]pyridin-5-amine] | 1 to 100
6 | CC(O)CNC(=O)c1ccc(Cl)c(COc2cc(N)nc3[nH]nnc23)c1 (centres unmarked) [Example 191, 3-((5-amino-3H-[1,2,3]triazolo [4,5-b]pyridin-7-yloxy)methyl)-4-chloro-N-(2-hydroxypropyl) benzamide] | 1 to 100
7 | Nc1cc(OCc2ccc(-n3cncn3)cc2OC(F)(F)F)c2nn[nH]c2n1 [Example 267, 7-((4-(1H-1,2,4-triazol-1-yl)-2-(trifluoromethoxy)benzyl)oxy)-3H-[1,2,3]triazolo[4,5-b]pyridin-5-amine] | 1 to 100
8 | Nc1cc(OCc2ccc(C(=O)N3CCC[C@H]3CO)cc2Cl)c2nn[nH]c2n1 [Example 199, (S)-(4-((5-amino-3H-[1,2,3]triazolo [4,5-b]pyridin-7-yloxy)methyl)-3-chlorophenyl)(2-(hydroxymethyl)pyrrolidin-1-yl)methanone] | 101 to 999
9 | COc1c(Br)cccc1COc1cc(N)nc2[nH]nnc12 [Example 59, 7-(3-Bromo-2-methoxybenzyloxy)-3H-[1,2,3]triazolo[4,5-b]pyridin-5-amine] | 1 to 100
10 | Nc1cc(OCc2c(F)ccc(Br)c2F)c2nn[nH]c2n1 [Example 236, 7-((3-Bromo-2,6-difluorobenzyl)oxy)-3H-[1,2,3]triazolo[4,5-b]pyridin-5-amine] | 1 to 100
11 | Nc1cc(OCc2cc(C(=O)NC3CC3)ccc2F)c2nn[nH]c2n1 [Example 48, 3-((5-Amino-3H-[1,2,3]triazolo[4,5-b]pyridin-7-yloxy)methyl)-N-cyclopropyl-4-fluorobenzamide] | 1 to 100
12 | NC(=O)CCNC(=O)c1ccc(F)c(COc2cc(N)nc3[nH]nnc23)c1 [Example 170, N-(3-amino-3-oxopropyl)-3-((5-amino-3H-[1,2,3]triazolo[4,5-b]pyridin-7-yloxy)methyl)-4-fluorobenzamide] | 1 to 100

Next, values leading:

Row | IC50 [nM] | Structure (SMILES)
13 | 101 to 999 | CNC(=O)CNC(=O)c1ccc(COc2cc(N)nc3[nH]nnc23)c(Cl)c1 [Example 218, 4-((5-amino-3H-[1,2,3]triazolo[4,5-b]pyridin-7-yloxy)methyl)-3-chloro-N-(2-(methylamino)-2-oxoethyl) benzamide]
14 | 101 to 999 | N#Cc1cc(-c2ccc(N3CCNC(=O)C3)nc2)ccc1COc1cc(N)nc2[nH]nnc12 [Example 349, 2-(((5-Amino-3H-[1,2,3]triazolo[4,5-b]pyridin-7-yl)oxy)methyl)-5-(6-(3-oxopiperazin-1-yl)pyridin-3-yl)benzonitrile]
15 | 1 to 100 | N#Cc1cccc(-c2cccc(COc3cc(N)nc4[nH]nnc34)c2)c1 [Example 92, 3′-((5-Amino-3H-[1,2,3]triazolo[4,5-b]pyridin-7-yloxy)methyl)biphenyl-3-carbonitrile]
16 | 101 to 999 | Cc1nccn1-c1cccc(COc2cc(N)nc3[nH]nnc23)c1 [Example 7, 7-(3-(2-Methyl-1H-imidazol-1-yl)benzyloxy)-3H-[1,2,3]triazolo[4,5-b]pyridin-5-amine]
17 | 101 to 999 | Nc1cc(OCc2cccc(-c3ccc(-c4ccccc4)cc3)c2)c2nn[nH]c2n1 [Example 102, 7-((4′-Phenylbiphenyl-3-yl)methoxy)-3H-[1,2,3]triazolo[4,5-b]pyridin-5-amine]
18 | 1 to 100 | Nc1cc(OCc2ccc(-n3cc4ccccc4n3)cc2OC(F)(F)F)c2nn[nH]c2n1 [Example 259, 7-((4-(2H-indazol-2-yl)-2-(trifluoromethoxy)benzyl)oxy)-3H-[1,2,3]triazolo[4,5-b]pyridin-5-amine]
19 | 101 to 999 | Nc1cc(OCc2ccc(C(=O)NC3CC3)cc2Cl)c2nn[nH]c2n1 [Example 197, 4-((5-amino-3H-[1,2,3]triazolo[4,5-b]pyridin-7-yloxy)methyl)-3-chloro-N-cyclopropylbenzamide]
20 | 101 to 999 | Nc1cc(OCc2cc(C(=O)NC3(CO)CCCC3)ccc2F)c2nn[nH]c2n1 [Example 160, 3-((5-amino-3H-[1,2,3]triazolo[4,5-b]pyridin-7-yloxy)methyl)-4-fluoro-N-(1-(hydroxymethyl)cyclopentyl) benzamide]
21 | 1 to 100 | CSc1ccc(-c2ccc(COc3cc(N)nc4[nH]nnc34)c(OC(F)(F)F)c2)cn1 [Example 289, 7-((4-(6-(methylthio)pyridin-3-yl)-2-(trifluoromethoxy)benzyl)oxy)-3H-[1,2,3] triazolo[4,5-b]pyridin-5-amine]
22 | 1000 to 10000 | CC(Oc1cc(N)nc2[nH]nnc12)c1ccc(OC(F)(F)F)cc1 (centres unmarked) [Example 142, 7-(1-(4-(Trifluoromethoxy)phenyl)ethoxy)-3H-[1,2,3]triazolo[4,5-b]pyridin-5-amine]
23 | 1 to 100 | NC(=O)CNC(=O)c1ccc(F)c(COc2cc(N)nc3[nH]nnc23)c1 [Example 161, N-(2-amino-2-oxoethyl)-3-((5-amino-3H-[1,2,3]triazolo[4,5-b]pyridin-7-yloxy)methyl)-4-fluorobenzamide]
24 | 101 to 999 | Nc1cc(OCc2ccc(C(=O)N3CCC(CO)C3)cc2Cl)c2nn[nH]c2n1 (centres unmarked) [Example 210]
25 | 101 to 999 | CN(C)CCN(C)C(=O)c1ccc(COc2cc(N)nc3[nH]nnc23)c(Cl)c1 [Example 222, 4-((5-amino-3H-[1,2,3]triazolo[4,5-b]pyridin-7-yloxy)methyl)-3-chloro-N-(2-(dimethylamino)ethyl)-N-methylbenzamide]
26 | 1 to 100 | CC(=O)N1CCN(c2ccc(-c3ccc(COc4cc(N)nc5[nH]nnc45)c(C#N)c3)cn2)CC1 [Example 318, 5-(6-(4-acetylpiperazin-1-yl)pyridin-3-yl)-2-(((5-amino-3H-[1,2,3]triazolo[4,5-b]pyridin-7-yl)oxy)methyl) benzonitrile]
27 | 101 to 999 | Nc1cc(OCc2cccc(-c3ccn(Cc4ccccc4)n3)c2)c2nn[nH]c2n1 [Example 75, 7-(3-(1-Benzyl-1H-pyrazol-3-yl)benzyloxy)-3H-[1,2,3]triazolo[4,5-b]pyridin-5-amine]
28 | 1 to 100 | COc1ccccc1-c1ccc(COc2cc(N)nc3[nH]nnc23)cc1 [Example 123, 7-((2′-Methoxybiphenyl-4-yl)methoxy)-3H-[1,2,3]triazolo[4,5-b]pyridin-5-amine]
29 | 1 to 100 | CN1CCN(c2cc(-c3ccc(COc4cc(N)nc5[nH]nnc45)c(OC(F)(F)F)c3)ccn2)CC1 [Example 299, 7-((4-(2-(4-methylpiperazin-1-yl)pyridin-4-yl)-2-(trifluoromethoxy)benzyl)oxy)-3H-[1,2,3] triazolo[4,5-b]pyridin-5-amine]
